Assay results reported in the supplement of paper PMC10307832.

What was measured:
Assay in all cases: relative viability (nuclei count vs DMSO), 5 days (fraction); higher = more cells survive
[1] = compound: N#CC1(c2ccc(NC(=O)c3cccnc3NCc3ccncc3)cc2)CCCC1 [Apatinib] + CC(C)C[C@H](NC(=O)[C@H](Cc1ccccc1)NC(=O)c1cnccn1)B(O)O [Bortezomib] (partner 0.002 µM)
Summary of the method: (§1)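 For relative viability, nuclei counts in treated wells were divided by those in vehicle wells. Lung cancer cell lines had been pin-tool dosed in 1536-well plates the day after seeding and cultured for 5 days, then fixed and stained in one step (final 0.05% Triton X-100, 1% formaldehyde, 1 ug/ml Hoechst) and imaged at 4×. Doses were one drug alone or a fixed anchor-drug dose plus five library-drug doses (not always all listed) in √10 steps, and values are duplicate-plate medians.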

[2] = compound: N#CC1(c2ccc(NC(=O)c3cccnc3NCc3ccncc3)cc2)CCCC1 [Apatinib] + Nc1nc2[nH]cc(CCc3ccc(C(=O)N[C@@H](CCC(=O)O)C(=O)O)cc3)c2c(=O)[nH]1 [Pemetrexed] (partner 0.2 µM)
Summary of the method: as §1

[3] = compound: N#CC1(c2ccc(NC(=O)c3cccnc3NCc3ccncc3)cc2)CCCC1 [Apatinib] + Cc1cc(Nc2cc(N3CCN(C)CC3)nc(Sc3ccc(NC(=O)C4CC4)cc3)n2)n[nH]1 [Tozasertib] (partner 0.1 µM)
Summary of the method: as §1

[4] = compound: CN(C)C(=N)NC(=N)N [Metformin] + Cc1nc(Nc2ncc(C(=O)Nc3c(C)cccc3Cl)s2)cc(N2CCN(CCO)CC2)n1 [Dasatinib] (partner 0.075 µM)
Summary of the method: as §1

In the case of NCI-H520, the relative viability ([1]; first compound 0.08 µM) is reported as 0.83, the relative viability ([1]; first compound 0.253 µM) is reported as 0.492 and the relative viability ([1]; first compound 0.8 µM) is reported as 0.451. For the same cell line, the relative viability ([1]; first compound 2.53 µM) was 0.585, the relative viability ([1]; first compound 8 µM) was 0.447 and the relative viability ([2]; first compound 0.08 µM) was 0.668. It also gave a relative viability ([2]; first compound 0.253 µM) of 0.678, a relative viability ([2]; first compound 0.8 µM) of 0.736 and a relative viability ([2]; first compound 2.53 µM) of 0.552. For the same cell line, the relative viability ([2]; first compound 8 µM) was 0.322, the relative viability ([3]; first compound 0.08 µM) was 0.445 and the relative viability ([3]; first compound 0.253 µM) was 0.427. The relative viability ([3]; first compound 0.8 µM) was 0.437, the relative viability ([3]; first compound 2.53 µM) was 0.409 and the relative viability ([3]; first compound 8 µM) was 0.417. It also gave a relative viability ([4]; first compound 10 µM) of 0.24, a relative viability ([4]; first compound 31.62 µM) of 0.195 and a relative viability ([4]; first compound 100 µM) of 0.265. The relative viability ([4]; first compound 316.23 µM) was 0.195 and the relative viability ([4]; first compound 1000 µM) was 0.217.
In the case of SK-LU-1, the relative viability ([1]; first compound 0.08 µM) is reported as 0.932, the relative viability ([1]; first compound 0.253 µM) is reported as 1.26 and the relative viability ([1]; first compound 0.8 µM) is reported as 0.968. The relative viability ([1]; first compound 2.53 µM) was 1.12, the relative viability ([1]; first compound 8 µM) was 1 and the relative viability ([2]; first compound 0.08 µM) was 1.09. It also gave a relative viability ([2]; first compound 0.253 µM) of 0.995, a relative viability ([2]; first compound 0.8 µM) of 0.918 and a relative viability ([2]; first compound 2.53 µM) of 0.544. The relative viability ([2]; first compound 8 µM) was 0.32, the relative viability ([3]; first compound 0.08 µM) was 0.337 and the relative viability ([3]; first compound 0.253 µM) was 0.436. It also gave a relative viability ([3]; first compound 0.8 µM) of 0.28, a relative viability ([3]; first compound 2.53 µM) of 0.275 and a relative viability ([3]; first compound 8 µM) of 0.243. For the same cell line, the relative viability ([4]; first compound 10 µM) was 0.171, the relative viability ([4]; first compound 31.62 µM) was 0.192 and the relative viability ([4]; first compound 100 µM) was 0.174. The relative viability ([4]; first compound 316.23 µM) was 0.17 and the relative viability ([4]; first compound 1000 µM) was 0.177.
With NCI-H1755 the relative viability ([1]; first compound 0.08 µM) was 1.02, the relative viability ([1]; first compound 0.253 µM) was 0.959 and the relative viability ([1]; first compound 0.8 µM) was 0.94. It also gave a relative viability ([1]; first compound 2.53 µM) of 0.945, a relative viability ([1]; first compound 8 µM) of 0.925 and a relative viability ([2]; first compound 0.08 µM) of 0.423. The relative viability ([2]; first compound 0.253 µM) was 0.441, the relative viability ([2]; first compound 0.8 µM) was 0.402 and the relative viability ([2]; first compound 2.53 µM) was 0.329. The relative viability ([2]; first compound 8 µM) was 0.364, the relative viability ([3]; first compound 0.08 µM) was 0.64 and the relative viability ([3]; first compound 0.253 µM) was 0.542. For the same cell line, the relative viability ([3]; first compound 0.8 µM) was 0.529, the relative viability ([3]; first compound 2.53 µM) was 0.506 and the relative viability ([3]; first compound 8 µM) was 0.447. The relative viability ([4]; first compound 10 µM) was 0.422, the relative viability ([4]; first compound 31.62 µM) was 0.332 and the relative viability ([4]; first compound 100 µM) was 0.433. It also gave a relative viability ([4]; first compound 316.23 µM) of 0.36 and a relative viability ([4]; first compound 1000 µM) of 0.417.
Cell Line EPLC-272H has a relative viability ([1]; first compound 0.08 µM) of 1.04, a relative viability ([1]; first compound 0.253 µM) of 0.905 and a relative viability ([1]; first compound 0.8 µM) of 0.806. It also gave a relative viability ([1]; first compound 2.53 µM) of 0.738, a relative viability ([1]; first compound 8 µM) of 0.666 and a relative viability ([2]; first compound 0.08 µM) of 0.275. It also gave a relative viability ([2]; first compound 0.253 µM) of 0.333, a relative viability ([2]; first compound 0.8 µM) of 0.359 and a relative viability ([2]; first compound 2.53 µM) of 0.322. It also gave a relative viability ([2]; first compound 8 µM) of 0.199, a relative viability ([3]; first compound 0.08 µM) of 0.28 and a relative viability ([3]; first compound 0.8 µM) of 0.248. The relative viability ([3]; first compound 2.53 µM) was 0.18, the relative viability ([3]; first compound 8 µM) was 0.144 and the relative viability ([4]; first compound 10 µM) was 0.358. It also gave a relative viability ([4]; first compound 31.62 µM) of 0.445, a relative viability ([4]; first compound 100 µM) of 0.462 and a relative viability ([4]; first compound 316.23 µM) of 0.426. It also gave a relative viability ([4]; first compound 1000 µM) of 0.394.
NCI-H23 gave a relative viability ([1]; first compound 0.08 µM) of 0.91, a relative viability ([1]; first compound 0.253 µM) of 1.01 and a relative viability ([1]; first compound 0.8 µM) of 0.908. For the same cell line, the relative viability ([1]; first compound 2.53 µM) was 0.902, the relative viability ([1]; first compound 8 µM) was 0.805 and the relative viability ([2]; first compound 0.08 µM) was 0.747. For the same cell line, the relative viability ([2]; first compound 0.253 µM) was 0.855, the relative viability ([2]; first compound 0.8 µM) was 0.677 and the relative viability ([2]; first compound 2.53 µM) was 0.57. The relative viability ([2]; first compound 8 µM) was 0.439, the relative viability ([3]; first compound 0.08 µM) was 0.374 and the relative viability ([3]; first compound 0.253 µM) was 0.516. For the same cell line, the relative viability ([3]; first compound 0.8 µM) was 0.339, the relative viability ([3]; first compound 2.53 µM) was 0.243 and the relative viability ([3]; first compound 8 µM) was 0.197. The relative viability ([4]; first compound 10 µM) was 0.759, the relative viability ([4]; first compound 31.62 µM) was 0.876 and the relative viability ([4]; first compound 100 µM) was 0.833. The relative viability ([4]; first compound 316.23 µM) was 0.499 and the relative viability ([4]; first compound 1000 µM) was 0.802.
For LCLC-103H, the relative viability ([1]; first compound 0.08 µM) was 1.16, the relative viability ([1]; first compound 0.253 µM) was 1.03 and the relative viability ([1]; first compound 0.8 µM) was 0.998. For the same cell line, the relative viability ([1]; first compound 2.53 µM) was 0.992, the relative viability ([1]; first compound 8 µM) was 1.09 and the relative viability ([2]; first compound 0.08 µM) was 0.439. For the same cell line, the relative viability ([2]; first compound 0.253 µM) was 0.463, the relative viability ([2]; first compound 0.8 µM) was 0.412 and the relative viability ([2]; first compound 2.53 µM) was 0.432. It also gave a relative viability ([2]; first compound 8 µM) of 0.39, a relative viability ([3]; first compound 0.08 µM) of 0.443 and a relative viability ([3]; first compound 0.253 µM) of 0.491. It also gave a relative viability ([3]; first compound 0.8 µM) of 0.429, a relative viability ([3]; first compound 2.53 µM) of 0.42 and a relative viability ([3]; first compound 8 µM) of 0.357. The relative viability ([4]; first compound 10 µM) was 0.598, the relative viability ([4]; first compound 31.62 µM) was 0.579 and the relative viability ([4]; first compound 100 µM) was 0.579. For the same cell line, the relative viability ([4]; first compound 316.23 µM) was 0.514 and the relative viability ([4]; first compound 1000 µM) was 0.588.
For NCI-H1650, the relative viability ([1]; first compound 0.08 µM) was 0.19, the relative viability ([1]; first compound 0.253 µM) was 0.219 and the relative viability ([1]; first compound 0.8 µM) was 0.198. The relative viability ([1]; first compound 2.53 µM) was 0.184, the relative viability ([1]; first compound 8 µM) was 0.188 and the relative viability ([2]; first compound 0.08 µM) was 0.386. The relative viability ([2]; first compound 0.253 µM) was 0.347, the relative viability ([2]; first compound 0.8 µM) was 0.325 and the relative viability ([2]; first compound 2.53 µM) was 0.37. The relative viability ([2]; first compound 8 µM) was 0.378, the relative viability ([3]; first compound 0.253 µM) was 0.334 and the relative viability ([3]; first compound 0.8 µM) was 0.329. For the same cell line, the relative viability ([3]; first compound 2.53 µM) was 0.257, the relative viability ([3]; first compound 8 µM) was 0.26 and the relative viability ([4]; first compound 10 µM) was 0.443. It also gave a relative viability ([4]; first compound 31.62 µM) of 0.456, a relative viability ([4]; first compound 100 µM) of 0.366 and a relative viability ([4]; first compound 316.23 µM) of 0.301. For the same cell line, the relative viability ([4]; first compound 1000 µM) was 0.369.
COR-L23 gave a relative viability ([1]; first compound 0.08 µM) of 1.07, a relative viability ([1]; first compound 0.253 µM) of 1.03 and a relative viability ([1]; first compound 0.8 µM) of 0.971. The relative viability ([1]; first compound 2.53 µM) was 0.793, the relative viability ([1]; first compound 8 µM) was 0.898 and the relative viability ([2]; first compound 0.08 µM) was 0.194. The relative viability ([2]; first compound 0.253 µM) was 0.191, the relative viability ([2]; first compound 0.8 µM) was 0.192 and the relative viability ([2]; first compound 2.53 µM) was 0.199. The relative viability ([2]; first compound 8 µM) was 0.177, the relative viability ([3]; first compound 0.08 µM) was 0.263 and the relative viability ([3]; first compound 0.253 µM) was 0.165. It also gave a relative viability ([3]; first compound 0.8 µM) of 0.149, a relative viability ([3]; first compound 2.53 µM) of 0.143 and a relative viability ([3]; first compound 8 µM) of 0.129. It also gave a relative viability ([4]; first compound 10 µM) of 0.496, a relative viability ([4]; first compound 31.62 µM) of 0.436 and a relative viability ([4]; first compound 100 µM) of 0.413. The relative viability ([4]; first compound 316.23 µM) was 0.393 and the relative viability ([4]; first compound 1000 µM) was 0.121.
